In brackets after ≈: the same amount, converted by molar mass.
Assays:
[1] = tested on: MRSA 33; test: MIC, agar incorporation method; format: cell-based, Staphylococcus aureus; conditions: MRSA 33; agar incorporation
Experimental: (§1) The compounds of the invention display antibacterial activity when tested by the agar incorporation method. The following minimum inhibitory concentrations (μg/ml) were obtained for representative compounds of the invention which are given below in the following tables.
(§2) Briefly, the compounds were dissolved in DMSO and doubling dilution of the compounds were incorporated into Meuller Hilton agar before solidification. Inoculum was prepared by suspending 4 to 5 colonies into 5 ml of normal saline solution and adjusting the turbidity to 0.5 Macfarland turbidity standard tables (1.5×10^8 CFU/ml), after appropriate dilutions, 10^4 CFU/spot was transfered into the surface of dried plate and incubated for 18 hours (24 hours for MRSN studies). The concentration showing no growth of the inoculated culture was recorded as the MIC. Appropriate ATCC standard strains were simultaneously tested and result recorded only when the MIC's against standard antibiotics were within the acceptable range.

[2] = tested on: E. faecalis 29212; test: MIC, agar incorporation method; format: cell-based, Enterococcus faecalis; conditions: E. faecalis 29212; agar incorporation
From the text: as §1
(§3) • 1) S.aureus ATCC 25923—Staphylococus aureus ATCC 25923 • 2) MRSA 15187—Methicillin Resistant Staphylococcus aureus • 3) Ent. faecalis ATCC 29212—Enterococcus faecalis ATCC 29212 • 4) Ent. faecium 6A—Enterococcus faecium 6A Van®, Cipro® • 5) Strep. pne. ATCC 6303—Streptococcus pneumoniae ATCC 6303 • 6) Strep. pyog. ATCC 19615—Streptococcus pyogenes • 7) S. epidermidis—Staphylococcus epidermidis ATCC 12228
as §2

[3] = tested on: MRSA 15187; test: MIC, agar incorporation method; format: cell-based, Staphylococcus aureus; conditions: MRSA 15187; agar incorporation
From the text: as §1, §3, §2

[4] = tested on: S. aureus 25923; test: MIC, agar incorporation method; format: cell-based, Staphylococcus aureus; conditions: S. aureus 25923; agar incorporation
From the text: as §1, §3, §2

[5] = tested on: MRSA 562; test: In vivo activity against MRSA 562 (ED50); design: species or system Staphylococcus aureus
[6] = tested on: S. pyogenes 19615; test: MIC, agar incorporation method; format: cell-based, Streptococcus pyogenes; conditions: S. pyogenes 19615; agar incorporation
From the text: as §1, §3, §2

[7] = tested on: S. pneum 6303; test: MIC, agar incorporation method; format: cell-based, Streptococcus pneumoniae; conditions: S. pneum 6303; agar incorporation
From the text: as §1, §3, §2

[8] = tested on: S. pneum AB 34; test: MIC, agar incorporation method; format: cell-based, Streptococcus pneumoniae; conditions: S. pneum AB 34; agar incorporation
Experimental: as §1, §2

[9] = tested on: VRE 6A; test: MIC, agar incorporation method; format: cell-based, Enterococcus faecium; conditions: VRE 6A; agar incorporation
From the text: as §1, §3, §2

[10] = tested on: MRSA 562; test: MIC, agar incorporation method; format: cell-based, Staphylococcus aureus; conditions: MRSA 562
Experimental: as §1, §2

[11] = tested on: G+ve; test: Summary of in vitro activity (MIC) against G+ve bacteria; format: cell-based; conditions: for MIC50 / MIC90: G+ve, Number 49; for Geometric Mean of in vitro activity (MIC): Gram +ve
Experimental: as §1, §2

[12] = tested on: S. pneumoniae; test: Summary of in vitro activity (MIC) against S. pneumoniae; format: cell-based, Streptococcus pneumoniae; conditions: S. pneumoniae; for MIC50 / MIC90: Number 19
Experimental: as §1, §2

[13] = tested on: S. aureus; test: Summary of in vitro activity (MIC) against S. aureus; format: cell-based, Staphylococcus aureus; conditions: S. aureus; for MIC50 / MIC90: Number 8
Experimental: as §1, §2

[14] = tested on: E. faecalis; test: Summary of in vitro activity (MIC) against E. faecalis; format: cell-based, Enterococcus faecalis; conditions: E. faecalis; for MIC50 / MIC90: Number 7
Experimental: as §1, §2

MIC [1] [µg/mL] | MIC [2] [µg/mL] | MIC [3] [µg/mL] | MIC [4] [µg/mL] | MIC [6] [µg/mL] | MIC [7] [µg/mL] | MIC [8] [µg/mL] | MIC [9] [µg/mL] | MIC ([10]; Table 5) [µg/mL] | Compound | ED50 (mg/kg body weight) PO [5] [mg/kg body weight] | MIC50 [11] [µg/mL] | MIC90 [11] [µg/mL] | Geometric Mean of in vitro activity (MIC) [11] [µg/mL] | Geometric Mean of in vitro activity (MIC) [12] [µg/mL] | MIC50 [12] [µg/mL] | MIC90 [12] [µg/mL] | Geometric Mean of in vitro activity (MIC) [13] [µg/mL] | MIC50 [13] [µg/mL] | MIC90 [13] [µg/mL] | Geometric Mean of in vitro activity (MIC) [14] [µg/mL] | other results
2 (≈ 3.93 µM) | 2 (≈ 3.93 µM) | 2 (≈ 3.93 µM) | 2 (≈ 3.93 µM) | 2 (≈ 3.93 µM) | 1 (≈ 1.96 µM) | 1 (≈ 1.96 µM) | 1 (≈ 1.96 µM) |  | CC(=O)NC[C@H]1CN(c2ccc(N3CCN(C(=O)c4ccc(Br)o4)CC3)c(F)c2)C(=O)O1 [Compound No. 04] | >25 |  |  |  |  |  |  |  |  |  |  | 
0.5 (≈ 1.05 µM) | 1 (≈ 2.1 µM) | 0.5 (≈ 1.05 µM) | 1 (≈ 2.1 µM) | 2 (≈ 4.21 µM) | 2 (≈ 4.21 µM) | 2 (≈ 4.21 µM) | 1 (≈ 2.1 µM) | 1 (≈ 2.1 µM) | CC(=O)NC[C@H]1CN(c2ccc(N3CCN(C(=O)c4ccc([N+](=O)[O-])o4)CC3)c(F)c2)C(=O)O1 [Compound No. 06, (S)-N-[[3-Fluoro-4-[N-1[4-(5-nitro-2-furoyl)piperazinyl]phenyl]-2-oxo-5-oxazolidinyl]methyl]acetamide] | >25 | 1 (≈ 2.1 µM) | 2 (≈ 4.21 µM) | 0.79 | 1.27 | 2 (≈ 4.21 µM) | 2 (≈ 4.21 µM) | 0.74 | 1 (≈ 2.1 µM) | 1 (≈ 2.1 µM) | 0.92 | MIC50 [14]: 1 µg/mL (≈ 2.1 µM); MIC90 [14]: 1 µg/mL (≈ 2.1 µM)
2 (≈ 4.21 µM) | 2 (≈ 4.21 µM) | 2 (≈ 4.21 µM) | 2 (≈ 4.21 µM) | 0.5 (≈ 1.05 µM) | 2 (≈ 4.21 µM) | 2 (≈ 4.21 µM) | 2 (≈ 4.21 µM) | 2 (≈ 4.21 µM) | CC(=O)NC[C@H]1CN(c2ccc(N3CCN(C(=O)C(=O)c4cccs4)CC3)c(F)c2)C(=O)O1 [Compound No. 07, (S)-N[[3-[3-Fluoro-4-[N-1[4-{2-(2-thienyl)dicarbonyl}]-piperazinyl]phenyl]2-oxo-5-oxazolidinyl]methyl]acetamide] | >25 |  |  |  |  |  |  |  |  |  |  | MIC ([10]; agar incorporation, Table 1): 2 µg/mL (≈ 4.21 µM)

Compound | MIC [1] [µg/mL] | MIC [2] [µg/mL] | MIC [3] [µg/mL] | MIC [4] [µg/mL] | MIC [6] [µg/mL] | MIC [7] [µg/mL] | MIC [8] [µg/mL] | MIC [9] [µg/mL] | MIC ([10]; Table 5) [µg/mL] | ED50 (mg/kg body weight) PO [5] [mg/kg body weight] | MIC50 [11] [µg/mL] | MIC90 [11] [µg/mL] | Geometric Mean of in vitro activity (MIC) [11] [µg/mL] | Geometric Mean of in vitro activity (MIC) [12] [µg/mL] | MIC50 [12] [µg/mL] | MIC90 [12] [µg/mL] | Geometric Mean of in vitro activity (MIC) [13] [µg/mL] | MIC50 [13] [µg/mL] | MIC90 [13] [µg/mL] | Geometric Mean of in vitro activity (MIC) [14] [µg/mL] | other results
CC(=O)NC[C@H]1CN(c2ccc(N3CCN(Cc4ccc([N+](=O)[O-])o4)CC3)c(F)c2)C(=O)O1 [Compound No. 15, (S)-N-[[3-[3-fluoro-4-[N-1-[4-{2-furyl-(5-nitro)methyl}]piperazinyl]phenyl]-2-oxo-5-oxazolidinyl]methyl]acetamide] | 2 (≈ 4.33 µM) | 2 (≈ 4.33 µM) | 2 (≈ 4.33 µM) | 2 (≈ 4.33 µM) | 1 (≈ 2.17 µM) | 1 (≈ 2.17 µM) | 2 (≈ 4.33 µM) | 1 (≈ 2.17 µM) | 2 (≈ 4.33 µM) | 4.33 | 1 (≈ 2.17 µM) | 2 (≈ 4.33 µM) | 1.08 | 1.04 | 2 (≈ 4.33 µM) | 4 (≈ 8.67 µM) | 1.63 | 2 (≈ 4.33 µM) | 2 (≈ 4.33 µM) | 1.6 | MIC ([10]; agar incorporation, Table 1): 2 µg/mL (≈ 4.33 µM); MIC50 [14]: 2 µg/mL (≈ 4.33 µM); MIC90 [14]: 2 µg/mL (≈ 4.33 µM)

Reference: US6956040B2, “Oxazolidinone piperazinyl derivatives as potential antimicrobials” (Ranbaxy Laboratories Limited, priority 2001, dated 2005)
